Laboratory results taken from patent publication US5091370A, “Angolamycin derivatives” (Sanraku Incorporated, priority 1989, dated 1992).

Assay: Stability test against a mouse liver homogenate
Assay type: in vitro ADME, ICR-strain mice
Conditions: mouse liver homogenate supernatant, pH 7.2, 37° C., unchanged product remaining by TLC/chromatoscanner (283 nm), read-out: Residual activity ratio (%)
Protocol: The livers of ICR-strain mice were homogenized together with 5 times their amount of 0.1M phosphate buffer (pH 7.2) in a Potter homogenizer (3000 rpm, 10 minutes). One ml of 500 micrograms/ml of a test compound (10% methanol water) was added to the supernatant (1 ml) of the homogenate, and reacted at 37° C. for 1 hour. The mixture was heated at 100° C. of 3 minutes. Then, 1 ml of 0.1M phosphate buffer (pH 9.0) was added, and the mixture was extracted with 1 ml of ethyl acetate, organic layer was subjected to silica gel thin-layer chromatography (chloroform/methanol/ammonia=15/1.2/0.1), and by a chromatoscanner (283 nm), the ratio of an unchanged product and a hydrolyzed product formed was determined. The amount of the unchanged product remaining was expressed by percentage.

CCC1OC(=O)CC(O)C(C)C(OC2CC(N(C)C)C(OC3CC(C)(O)C(OC(=O)Cc4ccc(OC)cc4)C(C)O3)C(C)O2)C(CC=O)CC(C)C(=O)/C=C/C2(C)OC2C1COC1OC(C)C(O)C(OC)C1OC (stereo not drawn) [Compound (2), 4"-O-(p-methoxyphenylacetyl)-angolamycin]
remaining at 1 h: 95%

CCC1OC(=O)CC(O)C(C)C(OC2CC(N(C)C)C(OC3CC(C)(O)C(OC(=O)Cc4ccc(C(C)=O)cc4)C(C)O3)C(C)O2)C(CC=O)CC(C)C(=O)/C=C/C2(C)OC2C1COC1OC(C)C(O)C(OC)C1OC (stereo not drawn) [Compound (1), 4"-O-(p-acetylphenylacetyl)-angolamycin]
remaining at 1 h: 94%

CCC1OC(=O)CC(O)C(C)C(OC2CC(N(C)C)C(OC3CC(C)(O)C(OC(=O)CC(C)C)C(C)O3)C(C)O2)C(CC=O)CC(C)C(=O)/C=C/C2(C)OC2C1COC1OC(C)C(O)C(OC)C1OC (stereo not drawn) [Control compound (1), 4"-O-isovaleryl angola-mycin, reference compound]
remaining at 1 h: 55%
